# Test results from US11685741B2, “Fluorescent probes” (University of Massachusetts, priority 2017, dated 2023).
# Where “and” joins values, the source holds several entries; their conditions need not be identical. Identical values can stand only once. Entries after “also recorded” stand apart in the source; their conditions may differ.
# Legend:
# [1] = Binding studies of sensor with Fe3+ (Job's plot, titration, EDTA reversibility); conditions: 1:1 sensor-Fe^3+ complex; ACN/Tris-HCl buffer pH 7.3
# Protocol: Job's method and UV-vis spectra were applied to study the binding stoichiometry between Rh-PK and Fe^3+ and monitored by the absorbance at 555 nm. […] The binding constant of this complex was calculated following a method reported previously (G. E. Tumambac, et al., Tetrahedron 2004, 60, 11293-11297), using absorption values at […] by the equations described below, and was determined to be 1.54×10^7 […].
# The equations below was used to calculate the binding constants with stoichiometry of 1:1. L+S↔LS where L=sensor, S=Fe3+ and LS=sensor-Fe^3+ complex. The apparent binding constant is given by
# [formula] Fe is the fraction of L that formed a complex, [LS]e is concentration at equilibrium, [L]0 is the initial concentration. Au, Am, and Ac are the absorbances of solutions of L (before any Fe^3+ was added), during the titration and at saturation, respectively. The concentration of free Fe^3+ at equilibrium, [S]e, is found with the following identity. [S]e=[S]o−[LS]e=[S]o−Fc[L]o The apparent binding constant K can then be calculated from
# Reversibility experiments were carried out by adding EDTA to the complex in ACN/Tris-HCl buffer (10 mM, pH 7.3, v/v 3:1). […]
# The stoichiometry of RhHPA-Fe^3+ was measured using Job's plot and mole ratio plots methods. B. Valeur, Molecular Fluorescence: Principles and Applications, Wiley-VCH. […] To determine the binding constant of chemosensor, a fluorescence titration of different amounts of Fe^3+ into the acetonitrile solution of sensor was carried out. […] The determination of the binding constant of RhHPA was calculated using the following equation: F−Fmin=[…](Fmax−Fmin)/Kd where F is the observed fluorescence, Fmax is the maximum fluorescence for the RhHPA-Fe^3+ complex at concentration of the equal reacted between sensor and metal cation, Fmin is the fluorescence intensity for occurring RhHPA-Fe^3+.
# Absorption enhancement observation at 558 nm was plotted against the molar value of the [Fe^3+]/[Fe^3+]+RhHPA and [Fe^3+]/RhHPA. […] Binding constant of fluorescent sensor “RhHPA” was calculated and it was found as K=1.27×10^7 M^−1. […]
# [2] = Effect of pH on fluorescence of sensor and its Fe complex; format: physicochemical; conditions: pH adjusted with HCl/NaOH
# [3] = Metal ion sensing: UV-vis and fluorescence response to Fe3+ and other metal ions; conditions: one equivalent Fe^3+, ACN/Tris-HCl buffer pH 7.3
# Protocol: The spectroscopic properties of Rh-PK and its interactions with various metal ions were evaluated in acetonitrile (ACN)/Tris-HCl buffer (10 mM, pH 7.3, v/v, 3:1). […] The changes in UV-Vis spectra after the addition of various ions are shown in FIG. 2, which is an absorbance spectrum of 100 μM sensor with various metal ions (100 μM for Ni^+2, Cu^+, Cu^+2, Zn^+2, Pb, Fe^+2, Fe^+3, Cr^+3, Hg^+2, Mn^+2, Ag^+, and Co^+2; 200 μM for K^+, Na^+, Ca^2+ and Mg^2+) in the ACN/Tris buffer (10 mM, pH 7.3, v/v 3:1).
# When Fe^3+ was added into the solution of Rh-PK, a significant enhancement of fluorescence (>12-fold with 1.0 equiv of Fe^3+) was observed.
# The interferences from the other metal ions with Rh-PK in its response to Fe^3+ was examined. […] Each of the 12 metal ions was pre-incubated with Rh-PK before 1 equiv. of Fe^3+ was added, the fluorescence response was then measured.
# The stock solution of sensor and metal ions were prepared at the concentration of 1 mM. M. P. Walkees, Mutat. Res., 2003, 533, 107; M. Waisberg, et al., Toxicology, 2003, 192, 95.
# The UV-vis. and fluorescence spectra of RhHPA to various possible interfering metal ions and its selectivity for Fe^3+ were examined. See FIG. 6, which is a plot of absorbance dependent on the concentration of Fe^3+ in the range from 0 to 2 equivalents in ACN/Tris-HCl buffer (10 mM, pH 7.3, v/v 2:1); FIG. 7, which is a Job's plot between Fe^3+ and RhHPA, indicating the 1:1 binding mode for sensor and iron(III). […] Addition of Na^+, K^+, Ca^2+, Mg^2+, Cr^3+, […], Hg^2+, Cu^2+, Pb^2+, Zn^2+, Fe^2+, Co^2+, Ni^2+, and Ag^+ exerted little or no effect on the emission of RhHPA, while remarkable fluorescence enhancement was detected upon the addition of Fe^3+ by excitation of the rhodamine fluorophore at 535 nm.
# Experiments of iron(III) with other metal ions were investigated by means of the fluorescence response of RhHPA toward Fe^3+ in the presence of various other metal ions such as Na^+, K^+, Ca^2+, Mg^2+, Cr^3+, Hg^2+, Cu^2+, Pb^2+, Zn^2+, Fe^2+, Co^2+, Ni^2+, Cd^2+, and Ag^+. […] for Fe^3+ had no changes with addition of other metal ions. Cu(II) and Zn(II) increased the fluorescence intensity slightly.
# [4] = test system: Bovine aortic endothelial cells (BAEC); assay: Confocal imaging of Fe3+ with RhHPA in BAEC cells; format: cell-based
# Protocol: Primary cultured Bovine aortic endothelial cells (BAEC) were passaged in Endothelial Basal Medium (Lonza) containing 5% fetal bovine serum. Before the experiment, the cells were cultured to about 8th generation. For experiment preparation, the cells were routinely subcultured using 0.05% trypsin-EDTA solution. The cells were seeded on the 25 cm^2 flask and medium change every two days until a 70% confluency before transferring into disks. The cells were seeded on the 1 cm^2 disk and a medium change the next day.
# To evaluate the ability of RhHPA to capture Fe^3+ ions in cells, BAEC cells were incubated with the sensor (10 μM) for 30 min.
# BAEC cells were incubated with 10 μM of ferric chloride (FeCl3) at 37° C. for overnight, then 10 μM of RhHPA was added to BAEC cells and was incubated at 37° C. for 30 min.
# For the second control experiment, an Fe^3+-chelator SIH was added to iron-loaded and non-iron-loaded cells with RhHPA.
# BAEC cells (without Fe^3+ treatment) were treated with RhHPA, MitoTracker Green FM and LysoTracker blue DND-22. As shown in FIG. 20A to FIG. 20H, there are partial colocalization between RhHPA-Fe^3+ and the MitoTracker (FIG. 20E) as well as that between RhHPA-Fe^3+ and the LysoTracker (FIG. 20F); however, a […] colocalization was observed among RhHPA-Fe^3+, MitoTracker and LysoTracker (FIG. 20G).
# [5] = test system: cells in the culture experiments; assay: Cell permeability and toxicity in the culture experiments; format: cell-based
smiles,measurement,setting,value
"CCN(CC)c1ccc2c(c1)Oc1cc(N(CC)CC)ccc1C21c2ccccc2C(=O)N1/N=C/c1cccc(CO)n1 [RhHPA, (E)-3′,6′-bis(diethylamino)-2-(((6-(hydroxymethyl)pyridin-2-yl)methylene)amino)spiro[isoindoline-1,9′-xanthen]-3-one]",apparent binding constant,[1],1.27e+07 M⁻¹
same,pH range over which sensor (and Fe complex) fluorescence is stable / working pH range,[2],5-9 and 5 to 9
same,increase in fluorescence emission intensity,[3],~20 fold
same,increase in fluorescent intensity in Fe^3+-treated cells,"[4]; 10 μM FeCl3 overnight, then 10 μM RhHPA 30 min",~8 fold
same,fluorescence enhancement in cells,"[4]; 10 μM sensor, 30 min, no Fe^3+ supplementation",4 fold
same,"change in fluorescence signal, Fe^3+ then chelator","[4]; 20 μM Fe^3+ overnight, then 100 μM SIH, then 10 μM RhHPA, versus Fe(III) supplement",large decrease in fluorescence signal
same,change in fluorescence signal with chelator,"[4]; 100 μM SIH, non-iron-loaded cells",small decrease in fluorescence signal
same,toxicity for cells,[5]; culture experiments,non-toxic
same,cell permeability,[5]; live cells in culture,excellent cell permeability; also recorded: cell permeable
